Data reported in ChEMBL document CHEMBL1201862, “PubChem BioAssay data set” (2004).
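Values below derive from 48-hour exposures of cells grown in 96-well plates, with endpoints linearly interpolated between the two concentrations bracketing the appropriate inhibition level. GI50 = concentration required for 50% inhibition of growth.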 Active and inactive are the calls of the source. Rule as the data show it: active = GI50 up to about 1.1 µM and inactive = higher.

Legend:
Assay in all cases: NCI tumour cell line growth inhibition, 48 h
786-0 = tested on: 786-0
A498 = tested on: A498
A549 = tested on: A549
ACHN = tested on: ACHN
CAKI-1 = tested on: CAKI-1
CCRF-CEM = tested on: CCRF-CEM
COLO 205 = tested on: COLO 205
DLD-1 = tested on: DLD-1
DMS-114 = tested on: DMS-114
DMS-273 = tested on: DMS-273
EKVX = tested on: EKVX
HCC 2998 = tested on: HCC 2998
HCT-116 = tested on: HCT-116
HCT-15 = tested on: HCT-15
HL-60 = tested on: HL-60
HOP-18 = tested on: HOP-18
HOP-62 = tested on: HOP-62
HOP-92 = tested on: HOP-92
HT-29 = tested on: HT-29
IGROV-1 = tested on: IGROV-1
K562 = tested on: K562
KM-20L2 = tested on: KM-20L2
KM12 = tested on: KM12
LOX IMVI = tested on: LOX IMVI
LXFL 529 = tested on: LXFL 529
M14 = tested on: M14
M19-MEL = tested on: M19-MEL
MOLT-4 = tested on: MOLT-4
Malme-3M = tested on: Malme-3M
NCI-H226 = tested on: NCI-H226
NCI-H23 = tested on: NCI-H23
NCI-H460 = tested on: NCI-H460
NCI-H522 = tested on: NCI-H522
OVCAR-3 = tested on: OVCAR-3
OVCAR-4 = tested on: OVCAR-4
OVCAR-5 = tested on: OVCAR-5
OVCAR-8 = tested on: OVCAR-8
RPMI-8226 = tested on: RPMI-8226
RXF 393 = tested on: RXF 393
SF-268 = tested on: SF-268
SF-295 = tested on: SF-295
SF-539 = tested on: SF-539
SK-MEL-28 = tested on: SK-MEL-28
SK-MEL-2 = tested on: SK-MEL-2
SK-MEL-5 = tested on: SK-MEL-5
SK-OV-3 = tested on: SK-OV-3
SN12C = tested on: SN12C
SNB-19 = tested on: SNB-19
SNB-75 = tested on: SNB-75
SNB-78 = tested on: SNB-78
SR = tested on: SR
SW-620 = tested on: SW-620
TK-10 = tested on: TK-10
U-251 = tested on: U-251
UACC-257 = tested on: UACC-257
UACC-62 = tested on: UACC-62
UO-31 = tested on: UO-31
XF498 = tested on: XF498

Measured: GI50

CC(C)(C)C1=CC(=N/N=c2\scc(-c3ccccc3)n2-c2ccccc2)C=C(C(C)(C)C)C1=O
> 100 µM: HCT-15
inactive: 786-0 > 100 µM | A498 > 100 µM | A549 > 100 µM | ACHN > 100 µM | CAKI-1 > 100 µM | CCRF-CEM > 100 µM | COLO 205 > 100 µM | DLD-1 > 100 µM | DMS-114 > 100 µM | DMS-273 > 100 µM | EKVX > 100 µM | HCC 2998 > 100 µM | HCT-116 > 100 µM | HL-60 > 100 µM | HOP-18 > 100 µM | HOP-62 > 100 µM | HOP-92 > 100 µM | HT-29 > 100 µM | IGROV-1 > 100 µM | K562 > 100 µM | KM-20L2 > 100 µM | KM12 > 100 µM | LOX IMVI > 100 µM | LXFL 529 > 100 µM | M14 > 100 µM | M19-MEL > 100 µM | MOLT-4 > 100 µM | Malme-3M > 100 µM | NCI-H226 > 100 µM | NCI-H23 > 100 µM | NCI-H460 > 100 µM | NCI-H522 > 100 µM | OVCAR-3 > 100 µM | OVCAR-4 > 100 µM | OVCAR-5 > 100 µM | OVCAR-8 > 100 µM | RPMI-8226 > 100 µM | RXF 393 > 100 µM | SF-268 > 100 µM | SF-295 > 100 µM | SF-539 > 100 µM | SK-MEL-28 > 100 µM | SK-MEL-2 > 100 µM | SK-MEL-5 > 100 µM | SK-OV-3 > 100 µM | SN12C > 100 µM | SNB-19 > 100 µM | SNB-75 > 100 µM | SNB-78 > 100 µM | SR > 100 µM | SW-620 86.5 µM | TK-10 > 100 µM | U-251 > 100 µM | UACC-257 > 100 µM | UACC-62 > 100 µM | UO-31 > 100 µM | XF498 > 100 µM

O=C1Cc2c([nH]c3ccccc23)-c2ccccc2N1 [PAULLONE]
30.9 µM: HCT-15
inactive: 786-0 75.3 µM | A498 67.8 µM | A549 36.4 µM | ACHN 36.6 µM | CAKI-1 42.4 µM | CCRF-CEM 22.2 µM | COLO 205 22 µM | DLD-1 33.3 µM | DMS-273 31.1 µM | EKVX 49.5 µM | HCC 2998 19.9 µM | HCT-116 16.7 µM | HL-60 15.4 µM | HOP-18 > 100 µM | HOP-62 33.7 µM | HOP-92 62.5 µM | HT-29 26 µM | IGROV-1 27.2 µM | K562 19.5 µM | KM-20L2 21.4 µM | KM12 18.3 µM | LOX IMVI 16.5 µM | LXFL 529 19.1 µM | M14 42.5 µM | M19-MEL 53.1 µM | MOLT-4 17.1 µM | Malme-3M 61.1 µM | NCI-H226 27.8 µM | NCI-H23 16 µM | NCI-H460 34.7 µM | NCI-H522 17.3 µM | OVCAR-3 23.1 µM | OVCAR-4 43.1 µM | OVCAR-5 26.8 µM | OVCAR-8 40.1 µM | RPMI-8226 20.2 µM | RXF 393 16.1 µM | SF-268 45.2 µM | SF-295 37.8 µM | SF-539 18.3 µM | SK-MEL-28 48.8 µM | SK-MEL-2 43.3 µM | SK-MEL-5 22.8 µM | SK-OV-3 > 100 µM | SN12C 38.2 µM | SNB-19 61.4 µM | SNB-75 19.8 µM | SNB-78 > 100 µM | SW-620 28.2 µM | TK-10 > 100 µM | U-251 39.6 µM | UACC-257 59.2 µM | UO-31 27.2 µM | XF498 31.6 µM
